# Results: patent US20140283155A1, “REPRESSIBLE LETHAL SYSTEM FOR REGULATING INSECT POPULATIONS” (California Institute of Technology, priority 2013, published 2014)
# System: Drosophila melanogater
# Test: Evaluation of VanDal system in biological control (in vivo functionality, survival of transgenic lines and progeny)
# Settings: diet supplemented with a low dose vanillic acid
# Description: To engineer a dominant vanillic acid-repressible lethal system (VanDal system), a plasmid was constructed, in which the C-terminus of VanR was fused with the Herpes simplex virus transactivation domain VP16, generating a chimeric transcription factor (vanRTF) (as descried in Hagmann et al., 1997). The chimeric transcription factor VanR^TF was driven at high levels, in a ubiquitous pattern, using a baculovirus immediate early (iel) promoter separated by a baculovirus enhancer (hr5) (as described in Bossin et al., 2007). On the same plasmid, but facing in the opposite direction, VanO operator sequences were placed upstream of the P_hsp70^min promoter (as described in Amin et al., 1987), and the P_hsp70^min promoter drove the expression of toxin VP16. The vanillic acid-repressible lethal system resides in a single piggyback transposable element that also includes a positive selection marker gene, (Opie2-dsRed), to facilitate the identification of transgenic insects.
# In this example, in vivo functionality of the VanDal system prepared according to the general procedure of Example 1 was evaluated in Drosophila melanogater, an insect model organism. […] To simulate a release into the wild, two crosses in the absence of vanillic acid were set up: 1) homozygous VanDal males mated separately to wildtype virgin females and 2) homozygous Vandal females mated separately to wildype males.
smiles,measurement,value
"COc1cc(C(=O)O)ccc1O [vanillic acid, 4-hydroxy-3-methoxybenzoic acid]",survival of transgenic VanDal lines,only survive when fed a diet supplemented with a low dose vanillic acid
